Measurements reported in patent US20230057979A1, “MEDICINAL COMPOSITIONS FOR CARBON DIOXIDE BASED METERED DOSE INHALERS” (KINDEVA DRUG DELIVERY L.P., priority 2020, published 2023).
Each block holds one compound with its values, some of them ahead of it.

Experiments:
[1] = Beclomethasone Dipropionate (BDP) Aerodynamic Particle Size Distribution (APSD) by NGI; type: physicochemical; settings: Example 6 formulation, NGI 30 L/min, five actuations, average of three canisters
Procedure: APSD was determined using a Next Generation Impactor (NGI Model 170, Copley Scientific Limited UK) at a flow rate of 30±0.5 L/min drawn using a high-capacity pump (HCP5, Copley Scientific Limited, UK) the flow rate determined using a digital flow meter (Model 4043, TSI Instruments). The filter stage was fitted with a Whatman grade 934-AH glass microfiber filter. Units were tested at the start of life using a 3M Mark 6 actuator (3M, Loughborough, UK) with an exit orifice diameter of 0.25 mm and a jet length of 0.8 mm. Prior to testing, the inhaler was actuated five times to ensure the valve was primed after which the valve stem was cleaned and dried. The inhaler was then attached to the NGI with the use of an appropriate coupler and actuated five times into the NGI. The BDP was recovered from each component using methanol (HPLC grade, Thermo Fisher Scientific, Inc., Waltham, Mass.) using a volume of 10 mL for the stem/can, 30 mL for the throat/coupler, 5 mL for cups 1 to 4 and 20 mL for all other components. Recovery was performed using a rocker station (Gentle Rocker 4515, Copley Scientific Limited UK). Samples were assayed by reversed phase isocratic liquid chromatography using UV detection (Acquity H-Class UPLC, Waters Limited) with the parameter settings presented in Table 1. [table]

[2] = stated in description, cited from earlier work
[3] = Salbutamol Sulphate Aerodynamic Particle Size Distribution (APSD) by NGI; type: physicochemical; settings: Example 7 formulation, NGI 30 L/min, six actuations, average of three canisters
Procedure: APSD was determined using a Next Generation Impactor as described in the BDP APSD test method. Prior to testing, the inhaler was actuated five times to ensure the valve was primed after which the valve stem was cleaned and dried. The inhaler was then attached to the NGI with the use of an appropriate coupler and actuated six times into the NGI. The Salbutamol sulphate was recovered from each component using a solution of acetonitrile/0.1% phosphoric acid in water (9:1 v/v) using a volume of 20 mL for the throat/coupler and 10 mL for all other components. Recovery was performed using a rocker station (Gentle Rocker, Copley Scientific Limited UK). Samples were assayed by reversed phase gradient liquid chromatography using UV detection (HP1100, Agilent Technologies UK Limited), with the parameter settings in Table 2 and Table 3. [table] [table]

BDP deposited: Actuator [1]: 10.8 µg | BDP deposited: Cup 1 [1]: 0.3 µg | BDP deposited: Cup 2 [1]: 0.1 µg | BDP deposited: Cup 3 [1]: 0.1 µg | BDP deposited: Cup 4 [1]: 0.8 µg | BDP deposited: Cup 5 [1]: 4.3 µg | BDP deposited: Cup 6 [1]: 7.4 µg | BDP deposited: Cup 7 [1]: 4.7 µg | BDP deposited: Filter [1]: 1.6 µg | BDP deposited: MOC [1]: 5.9 µg | BDP deposited: Stem [1]: 3.6 µg | BDP deposited: Throat/Coupler [1]: 59.0 µg
Compound: CCC(=O)OCC(=O)[C@@]1(OC(=O)CC)[C@@H](C)C[C@H]2[C@@H]3CCC4=CC(=O)C=C[C@]4(C)[C@@]3(Cl)[C@@H](O)C[C@@]21C [BDP, beclomethasone dipropionate]

Compound: O=C=O [carbon dioxide]
vapor pressure at about 20° C. ([2]; pure liquid propellant, about 20 °C): about 57 bar | vapor pressure at about 40° C. ([2]; pure liquid propellant, about 40 °C): about 80 bar | liquid to supercritical phase transition temperature or critical point temperature ([2]; pure propellant): about 31 °C

SS deposited: Actuator [3]: 7.9 µg | SS deposited: Cup 1 [3]: 0.20 µg | SS deposited: Cup 2 [3]: 0.07 µg | SS deposited: Cup 3 [3]: 0.45 µg | SS deposited: Cup 4 [3]: 2.5 µg | SS deposited: Cup 5 [3]: 3.7 µg | SS deposited: Cup 6 [3]: 2.1 µg | SS deposited: Cup 7 [3]: 0.60 µg | SS deposited: Filter [3]: 0.05 µg | SS deposited: MOC [3]: 0.29 µg | SS deposited: Stem [3]: 1.4 µg | SS deposited: Throat/Coupler [3]: 54.2 µg
Compound: salbutamol sulphate [SS]
